Patent publication US9937235B2, “Lipidated peptides as anti-obesity agents” (USTAV ORGANICKE CHEMIE A BIOCHEMIE AKADEMIE VED CR, V.V.I, priority 2012, dated 2018)
Where a SMILES comes first, the peptide text is derived from it. [ ]: non-standard residue; d: D form. The star is where a group is joined. Phe(4-NO2) = N[C@@H](Cc1ccc([N+](=O)[O-])cc1)C(=O)O; Phe(3,4-Cl2) = N[C@@H](Cc1ccc(Cl)c(Cl)c1)C(=O)O; 1Nal = N[C@@H](Cc1cccc2ccccc12)C(=O)O; Palmitoyl = CCCCCCCCCCCCCCCC(=O)*; Myristoyl = CCCCCCCCCCCCCC(=O)*; Lauroyl = CCCCCCCCCCCC(=O)*; Nle = CCCC[C@H](N)C(=O)O; Octanoyl = CCCCCCCC(=O)*

The compounds below were run on fasted C57BL/6 mice (assay: Food intake in fasted mice after SC administration). Conditions: fasted C57BL/6 mice, 5 mg/kg SC, 45 min.
Format: in vivo, mouse
Protocol: Male C57BL/6 mice (An Lab, Prague 4) were bred in the accredited animal facility in the Institute of Organic Chemistry and Biochemistry, Czech Academy of Sciences, Prague, at the Institute of Molecular Genetics, Prague 4, at the temperature of 22±2° C. with access to food and water ad libitum. The day/night cycle was 12/12 hours (light turned on at 6:00 am). Animals were treated according to the Animal Protection Act (Act No. 246/1992). The males were fed standard chow diet St-1 (Mlýn Kocanda, Praha, Czech Republic) which contained 66% saccharides, 25% proteins and 9% lipids with a caloric value of 3.4 kcal/g.
The food was withdrawn 17 hours prior to injection of lipidated peptide and free access to water was maintained. The administration of saline, PrRP or lipidated analogs was performed either by SC injection at doses of 1-10 mg/kg (volume 0.2 ml/mouse), or by ICV using infusion pump (cannulae were inserted into the third brain ventricle 4 days before the experiment following the procedure of Maixnerová et al. (Maixnerová et al., 2011)). The single dose of peptide was 4 nmol/mouse (5 μl/mouse).
Fifteen minutes after the lipidated peptide administration, the mice were given pre-weighed food. The food was then weighed every 30 minutes for 5-10 hours. The administration of every dose was performed at least twice and one group of mice consisted of at least 6 mice. The results were presented as % of food intake as compared with the control group injected with saline.
Statistical evaluation was performed using program Graph-Pad Prism Software (San Diego, Calif., USA), and the one-way ANOVA with a subsequent Dunnettovým post-hoc test. The difference in food intake between mice injected with saline and mice injected with the examined peptide were considered statistically significant at P<0.05.

SMILES | Food intake in mice (5 mg/kg SC) % saline-treated group (45 min) [%]
CCCCCCCCCCCC(=O)N[C@@H](CO)C(=O)N[C@@H](CCCNC(=N)N)C(=O)N[C@@H](C)C(=O)N[C@@H](Cc1c[nH]cn1)C(=O)N[C@@H](CCC(N)=O)C(=O)N[C@@H](Cc1c[nH]cn1)C(=O)N[C@@H](CO)C(=O)N[C@@H](CCCC)C(=O)N[C@@H](CCC(=O)O)C(=O)N[C@H](C(=O)N[C@@H](CCCNC(=N)N)C(=O)N[C@H](C(=O)N1CCC[C@H]1C(=O)N[C@@H](CC(=O)O)C(=O)N[C@H](C(=O)N[C@@H](CC(N)=O)C(=O)N1CCC[C@H]1C(=O)N[C@@H](C)C(=O)N[C@@H](Cc1c[nH]c2ccccc12)C(=O)N[C@@H](Cc1ccc(O)cc1)C(=O)N[C@H](C(=O)NCC(=O)N[C@@H](CCCNC(=N)N)C(=O)NCC(=O)N[C@H](C(=O)N[C@@H](CCCNC(=N)N)C(=O)N1CCC[C@H]1C(=O)N[C@H](C(=O)NCC(=O)N[C@@H](CCCNC(=N)N)C(=O)N[C@@H](Cc1ccccc1)C(N)=O)C(C)C)[C@@H](C)CC)[C@@H](C)O)[C@@H](C)CC)[C@@H](C)O)[C@@H](C)O [Analog 17] (Lauroyl-SRAHQHS[Nle]ETRTPDINPAWYTGRGIRPVGRF-NH2) | 22
CCCCCCCCCCCCCCCC(=O)N[C@@H](CO)C(=O)N[C@@H](CCCNC(=N)N)C(=O)N[C@@H](C)C(=O)N[C@@H](Cc1c[nH]cn1)C(=O)N[C@@H](CCC(N)=O)C(=O)N[C@@H](Cc1c[nH]cn1)C(=O)N[C@@H](CO)C(=O)N[C@@H](CCCC)C(=O)N[C@@H](CCC(=O)O)C(=O)N[C@H](C(=O)N[C@@H](CCCNC(=N)N)C(=O)N[C@H](C(=O)N1CCC[C@H]1C(=O)N[C@@H](CC(=O)O)C(=O)N[C@H](C(=O)N[C@@H](CC(N)=O)C(=O)N1CCC[C@H]1C(=O)N[C@@H](C)C(=O)N[C@@H](Cc1c[nH]c2ccccc12)C(=O)N[C@@H](Cc1ccc(O)cc1)C(=O)N[C@H](C(=O)NCC(=O)N[C@@H](CCCNC(=N)N)C(=O)NCC(=O)N[C@H](C(=O)N[C@@H](CCCNC(=N)N)C(=O)N1CCC[C@H]1C(=O)N[C@H](C(=O)NCC(=O)N[C@@H](CCCNC(=N)N)C(=O)N[C@@H](Cc1cccc2ccccc12)C(N)=O)C(C)C)[C@@H](C)CC)[C@@H](C)O)[C@@H](C)CC)[C@@H](C)O)[C@@H](C)O [Analog 23] (Palmitoyl-SRAHQHS[Nle]ETRTPDINPAWYTGRGIRPVGR[1Nal]-NH2) | 13
CCCCCCCCCCCCCCCC(=O)N[C@@H](CO)C(=O)N[C@@H](CCCNC(=N)N)C(=O)N[C@@H](C)C(=O)N[C@@H](Cc1c[nH]cn1)C(=O)N[C@@H](CCC(N)=O)C(=O)N[C@@H](Cc1c[nH]cn1)C(=O)N[C@@H](CO)C(=O)N[C@@H](CCCC)C(=O)N[C@@H](CCC(=O)O)C(=O)N[C@H](C(=O)N[C@@H](CCCNC(=N)N)C(=O)N[C@H](C(=O)N1CCC[C@H]1C(=O)N[C@@H](CC(=O)O)C(=O)N[C@H](C(=O)N[C@@H](CC(N)=O)C(=O)N1CCC[C@H]1C(=O)N[C@@H](C)C(=O)N[C@@H](Cc1c[nH]c2ccccc12)C(=O)N[C@@H](Cc1ccc(O)cc1)C(=O)N[C@H](C(=O)NCC(=O)N[C@@H](CCCNC(=N)N)C(=O)NCC(=O)N[C@H](C(=O)N[C@@H](CCCNC(=N)N)C(=O)N1CCC[C@H]1C(=O)N[C@H](C(=O)NCC(=O)N[C@@H](CCCNC(=N)N)C(=O)N[C@@H](Cc1ccc([N+](=O)[O-])cc1)C(N)=O)C(C)C)[C@@H](C)CC)[C@@H](C)O)[C@@H](C)CC)[C@@H](C)O)[C@@H](C)O [Analog 29] (Palmitoyl-SRAHQHS[Nle]ETRTPDINPAWYTGRGIRPVGR[Phe(4-NO2)]-NH2) | 0.7
CCCCCCCCCCCCCCCC(=O)N[C@@H](CO)C(=O)N[C@@H](CCCNC(=N)N)C(=O)N[C@@H](C)C(=O)N[C@@H](Cc1c[nH]cn1)C(=O)N[C@@H](CCC(N)=O)C(=O)N[C@@H](Cc1c[nH]cn1)C(=O)N[C@@H](CO)C(=O)N[C@@H](CCCC)C(=O)N[C@@H](CCC(=O)O)C(=O)N[C@H](C(=O)N[C@@H](CCCNC(=N)N)C(=O)N[C@H](C(=O)N1CCC[C@H]1C(=O)N[C@@H](CC(=O)O)C(=O)N[C@H](C(=O)N[C@@H](CC(N)=O)C(=O)N1CCC[C@H]1C(=O)N[C@@H](C)C(=O)N[C@@H](Cc1c[nH]c2ccccc12)C(=O)N[C@@H](Cc1ccc(O)cc1)C(=O)N[C@H](C(=O)NCC(=O)N[C@@H](CCCNC(=N)N)C(=O)NCC(=O)N[C@H](C(=O)N[C@@H](CCCNC(=N)N)C(=O)N1CCC[C@H]1C(=O)N[C@H](C(=O)NCC(=O)N[C@@H](CCCNC(=N)N)C(=O)N[C@@H](Cc1ccc(Cl)c(Cl)c1)C(N)=O)C(C)C)[C@@H](C)CC)[C@@H](C)O)[C@@H](C)CC)[C@@H](C)O)[C@@H](C)O [Analog 26] (Palmitoyl-SRAHQHS[Nle]ETRTPDINPAWYTGRGIRPVGR[Phe(3,4-Cl2)]-NH2) | 5
CCCCCCCCCCCCCC(=O)N[C@H](Cc1ccccc1)C(=O)N[C@H](CCCNC(=N)N)C(=O)NCC(=O)N[C@H](C(=O)N1CCC[C@H]1C(=O)N[C@@H](CCCNC(=N)N)C(=O)N[C@H](C(=O)NCC(=O)N[C@@H](CCCNC(=N)N)C(=O)NCC(=O)N[C@H](C(=O)N[C@@H](Cc1ccc(O)cc1)C(=O)N[C@@H](Cc1c[nH]c2ccccc12)C(=O)N[C@@H](C)C(=O)N1CCC[C@H]1C(=O)N[C@@H](CC(N)=O)C(=O)N[C@H](C(=O)N[C@@H](CC(=O)O)C(=O)N1CCC[C@H]1C(=O)N[C@H](C(N)=O)[C@@H](C)O)[C@@H](C)CC)[C@@H](C)O)[C@@H](C)CC)C(C)C [Analog 37] (Myristoyl-[dF][dR]GVPRIGRGTYWAPNIDPT-NH2) | 100
CCCCCCCC(=O)N[C@H](C(=O)N1CCC[C@H]1C(=O)N[C@@H](CC(=O)O)C(=O)N[C@H](C(=O)N[C@@H](CC(N)=O)C(=O)N1CCC[C@H]1C(=O)N[C@@H](C)C(=O)N[C@@H](Cc1c[nH]c2ccccc12)C(=O)N[C@@H](Cc1ccc(O)cc1)C(=O)N[C@@H](C)C(=O)N[C@@H](CO)C(=O)N[C@@H](CCCNC(=N)N)C(=O)NCC(=O)N[C@H](C(=O)N[C@@H](CCCNC(=N)N)C(=O)N1CCC[C@H]1C(=O)N[C@H](C(=O)NCC(=O)N[C@@H](CCCNC(=N)N)C(=O)N[C@@H](Cc1ccccc1)C(N)=O)C(C)C)[C@@H](C)CC)[C@@H](C)CC)[C@@H](C)O [Analog 52] (Octanoyl-TPDINPAWYASRGIRPVGRF-NH2) | 100
CC[C@H](C)[C@H](NC(=O)CNC(=O)[C@H](CCCNC(=N)N)NC(=O)[C@H](CO)NC(=O)[C@H](C)NC(=O)[C@H](Cc1ccc(O)cc1)NC(=O)[C@H](Cc1c[nH]c2ccccc12)NC(=O)[C@H](C)NC(=O)[C@@H]1CCCN1C(=O)[C@H](CC(N)=O)NC(=O)[C@@H](NC(=O)[C@H](CC(=O)O)NC(=O)[C@@H]1CCCN1C(=O)[C@@H](NC(=O)[C@H](CCCNC(=N)N)NC(=O)[C@@H](NC(=O)[C@H](CCC(=O)O)NC(=O)[C@H](CCSC)NC(=O)[C@H](CO)NC(=O)[C@H](Cc1c[nH]cn1)NC(=O)[C@H](CCCNC(=N)N)NC(=O)[C@H](Cc1c[nH]cn1)NC(=O)[C@@H](NC(=O)[C@H](CCCNC(=N)N)NC(=O)[C@@H](N)CO)[C@@H](C)O)[C@@H](C)CC)[C@@H](C)O)[C@@H](C)CC)C(=O)N[C@@H](CCCNC(=N)N)C(=O)N1CCC[C@H]1C(=O)N[C@H](C(=O)NCC(=O)N[C@@H](CCCNC(=N)N)C(=O)N[C@@H](Cc1ccccc1)C(N)=O)C(C)C [Analog 50] | 100
CCCCCCCCCCCCCCCC(=O)N[C@@H](CO)C(=O)N[C@@H](CCCNC(=N)N)C(=O)N[C@@H](C)C(=O)N[C@@H](Cc1c[nH]cn1)C(=O)N[C@@H](CCC(N)=O)C(=O)N[C@@H](Cc1c[nH]cn1)C(=O)N[C@@H](CO)C(=O)N[C@@H](CCCC)C(=O)N[C@@H](CCC(=O)O)C(=O)N[C@H](C(=O)N[C@@H](CCCNC(=N)N)C(=O)N[C@H](C(=O)N1CCC[C@H]1C(=O)N[C@@H](CC(=O)O)C(=O)N[C@H](C(=O)N[C@@H](CC(N)=O)C(=O)N1CCC[C@H]1C(=O)N[C@@H](C)C(=O)N[C@@H](Cc1c[nH]c2ccccc12)C(=O)N[C@@H](Cc1ccc(O)cc1)C(=O)N[C@H](C(=O)NCC(=O)N[C@@H](CCCNC(=N)N)C(=O)NCC(=O)N[C@H](C(=O)N[C@@H](CCCNC(=N)N)C(=O)N1CCC[C@H]1C(=O)N[C@H](C(=O)NCC(=O)N[C@@H](CCCNC(=N)N)C(=O)N[C@@H](Cc1ccc(O)cc1)C(N)=O)C(C)C)[C@@H](C)CC)[C@@H](C)O)[C@@H](C)CC)[C@@H](C)O)[C@@H](C)O [Analog 35] (Palmitoyl-SRAHQHS[Nle]ETRTPDINPAWYTGRGIRPVGRY-NH2) | 22
